Common to all, as to type: in vivo, C57BL/6J mice
Series [1] has as its system cisplatin-induced acute kidney damage in mice. Briefly: Example 11: serum urea nitrogen (Bun) in cisplatin-induced acute kidney damage model. As to the method: (§1) 42 male C57BL/6J mice (age: 6 to 8 weeks, body weight 18-20 g, certificate number: 11400700238365) were purchased from Si Pei Fu (Beijing) Biotechnology Co., Ltd., and raised in an SPF-grade animal room of the Institute of Materia Medica, Chinese Academy of Medical Sciences, at a temperature of 20 to 25° C., a relative humidity of 40% to 70%, and a cycle of 12 hours of light and 12 hours of dark. The animals had free access to water and food. After 3 days of normal feeding, mice with good physical conditions after the veterinary examination were selected for this assay. Before grouping, a marker was used to mark on the base of the animals' tail. After grouping, each animal was marked with an ear cutout (7 mice in each group).
(§2) Assay animals: 42 7-week-old male C57 mice were used for animal testing after an adaptive feeding.
(§3) Group 1: blank control group;
(§4) The preparation of the R01 formulation administration test solution was the same as that in Example 5: an appropriate amount of the R01 formulation was weighed according to the three dosages set in the assay, respectively, and an appropriate volume of 0.5% CMC-Na aqueous solution was added. The mixture was vortexed and sonicated until mixed evenly, to give the administration test solutions with concentrations of […], respectively, which were ready for use.
(§5) Animal testing period: 7 days (excluding adaptive feeding), hereinafter referred to as: D1-D7.
(§6) 1. The first group was a solvent control group: N=7, all mice were males (the same below); • a) 0.5% solution of sodium carboxymethyl cellulose was gavagely administered from D1 to D6 (twice a day for each animal, with an interval of 8 hours between the morning and the afternoon). • b) Physiological saline was intraperitoneally injected in one-time on D4. • c) On D7, blood was collected from the orbit for euthanasia (300 ul of serum was extracted), the left kidney was fixed in formaldehyde, and the right kidney was preserved in liquid nitrogen (WB study may be carried out).
(§7) 1) The concentrations of urea nitrogen and creatinine in peripheral blood serum were tested.
(§8) The body weight of the animals when being grouped for administration in each group was recorded. The body weight and the kidney weight at the end of the assay were also recorded, and the kidney coefficient was calculated. The creatinine and urea nitrogen values in the blood samples sent for testing were recorded. The kidneys were stained with HE and PAS, and the slides were scanned. A report was issued after the pathological analysis.
(§9) The assay data were calculated and processed statistically using Microsoft Office Excel 2007 software. Unless otherwise specified, the data were expressed as mean±standard error (Mean±SE), and t-test was used for comparison between two groups.

The nature of series [2]: Example 11: body weight in cisplatin-induced acute kidney damage model. The following applies: Amifostine group. As to the method: as §1, §2, §3, §4, §5, §6
(§10) 3) Each animal was weighed before euthanasia, and the weight was recorded. Two kidneys were weighed as soon as possible after euthanasia, and the weight was recorded. Then, the two kidneys were quickly fixed or cryopreserved, and the kidney coefficient of the mouse was calculated (kidney weight/mouse weight).
as §8, §9

Series [3] deals with cisplatin-induced acute kidney damage in mice. Put plainly: Example 11: kidney weight and kidney coefficient in cisplatin-induced acute kidney damage model. Here is the method:
as §1, §2, §3, §4, §5, §6, §10, §8, §9

Series [4] shares this test system. Put plainly: Example 11: serum creatinine (Cre) in cisplatin-induced acute kidney damage model. As to the method: as §1, §2, §3, §4, §5, §6, §7, §8, §9
Series [5] shares this test system. Put plainly: Example 11: renal pathology (HE, PAS) and pathological scoring. The following applies: cisplatin 10 mg/kg alone (model) or with amifostine 50 mg/kg i.p. half an hour before; trihydrate. As to the method: as §1, §2, §3, §4, §5
1. […]
The body weight of the animals when being grouped for administration in each group was recorded. The body weight and the kidney weight at the end of the assay were also recorded, and the kidney coefficient was calculated. The creatinine and urea nitrogen values in the blood samples sent for testing were recorded. […]

The mark [6] stands for this setting: group mean, cisplatin model, Amifostine group.
The mark [7] stands for this setting: individual animals No. 1-7, cisplatin model, Amifostine group, trihydrate.

“And” between values parts separate entries of the source, which are not always exact repeats. Identical values can stand only once. “Also recorded” adds a separate entry of the source.

With `NCCCNCCSP(=O)(O)O` [amifostine, Amifostine trihydrate, reference compound], in series [1] (cisplatin 10 mg/kg alone (vs blank, P<0.05) or with amifostine 50 mg/kg i.p. (P<0.01)), the “serum urea nitrogen value” was “significantly lower than that of the model group”. In addition, the “Urea nitrogen (Bun) level after the assay, x (mean)” value in series [1] (setting [6]) turned out to be 8.1 mg/dL. Besides, in series [1] (setting [7]), the “Urea nitrogen (Bun) level after the assay” value is 10.92 mg/dL and 8.76 mg/dL and 6.62 mg/dL and 7.23 mg/dL and 7.62 mg/dL and 8.78 mg/dL and 6.47 mg/dL. For the same compound, in series [2] (difference of group means, cisplatin model), the “Body weight, Before x- after x” value is recorded as 4.1 g. For the same compound, the “Body weight before cisplatin modeling, Before x (mean)” value in series [2] (group mean) is 20.9 g. In series [2] (group mean, cisplatin model), the “Body weight after the assay, After x (mean)” value was found to be 16.8 g. In addition, the “Body weight before cisplatin modeling” value in series [2] (individual animals No. 1-7, trihydrate) was 20.2 g and 20.6 g (2×) and 20.4 g and 20.5 g and 21.8 g and 22.4 g. The “Body weight after the assay” value in series [2] (individual animals No. 1-7, cisplatin model, trihydrate) was 18 g and 16.7 g and 16.8 g and 17.1 g and 16.3 g and 15.8 g and 17.2 g. Moreover, in series [3] (setting [6]), the “Kidney coefficient (kidney weight/body weight), x (mean)” value came to 0.014 and the “Kidney weight after the assay, x (mean)” value came out at 0.224 g. Besides, in series [3] (setting [7]), the “Kidney coefficient (kidney weight/body weight)” value was 0.014 (3×) and 0.015 (2×) and 0.013 (2×); the “Kidney weight after the assay” value is 0.223 g and 0.249 g and 0.202 g and 0.227 g and 0.220 g and 0.205 g and 0.241 g. Besides, the “Kidney coefficient (kidney weight/body weight)” value in series [3] (with cisplatin 10 mg/kg, amifostine 50 mg/kg i.p., R01 6, 18, 36 mg/kg bid) was “equivalent to that of the blank control group”. Besides, the serum creatinine value result in series [4] (cisplatin 10 mg/kg alone (vs blank, P<0.01) or with amifostine 50 mg/kg i.p. / R01 6, 18, 36 mg/kg bid) is reported as “equivalent to that of the blank control group”. The “Serum creatinine (Cre) level after the assay, x (mean)” value in series [4] (setting [6]) came out at 16.1 mg/dL. In series [4] (setting [7]), the “Serum creatinine (Cre) level after the assay” value is 9 mg/dl and 19 mg/dl and 14 mg/dl and 18 mg/dl (3×) and 17 mg/dl. Further, the “pathological damage of kidneys” value in series [5] was “slight renal tubular damage and blurred renal tubular epithelial edges; also recorded: significantly reduced”.
